Source: ChEMBL document CHEMBL1777712, “The identification of new metallo-β-lactamase inhibitor leads from fragment-based screening” (Bioorg Med Chem Lett, 2011)

How the values were obtained:
[1] = Un-competitive inhibition of metallo-beta-lactamase IMP-1 expressed in Escherichia coli BL21(DE3) using benzylpenicillin as substrate by 96-well plate assay
[2] = Competitive inhibition of metallo-beta-lactamase IMP-1 expressed in Escherichia coli BL21(DE3) using benzylpenicillin as substrate by 96-well plate assay
[3] = Competitive inhibition of metallo-beta-lactamase IMP-1 expressed in Escherichia coli BL21(DE3) using penicillin G as substrate by cuvette assay
[4] = Competitive inhibition of metallo-beta-lactamase IMP-1 expressed in Escherichia coli BL21(DE3) using penicillin G as substrate by 96-well plate assay

| Compound | Ki [1] | Ki [2] | Ki [3] | Ki [4] |
| --- | --- | --- | --- | --- |
| Nc1ccc(C(F)(F)F)cc1N | 430 µM | 990 µM |  |  |
| COC(=O)c1cccc(CN)c1 | 410 µM | 890 µM |  |  |
| OCc1ccc(-n2ccnc2)cc1 | 500 µM | > 2000 µM |  |  |
| NC(=O)Cc1ccc(F)cc1Cl | 680 µM | 760 µM |  |  |
| Nc1cccc(-c2cccnc2)c1 | 900 µM | 510 µM |  |  |
| Cn1c(S)nnc1C(F)(F)F | > 2000 µM | 970 µM |  |  |
| OCc1ccc(Cn2ccnc2)cc1 | 790 µM | > 2000 µM |  |  |
| Nc1cccc(Cn2ccnc2)c1 | 780 µM | 1640 µM |  |  |
| Nc1ccc(Cn2ccnc2)cc1 | 1180 µM | 1510 µM |  |  |
| C[C@H](CS)C(=O)N1CCC[C@H]1C(=O)O [CAPTOPRIL] | > 2000 µM |  | 12.5 µM | 7.2 µM |
